{
  "source": "ChEMBL document CHEMBL4311992",
  "about": "“Discovery of 3-(((9H-purin-6-yl)amino)methyl)-4,6-dimethylpyridin-2(1H)-one derivatives as novel tubulin polymerization inhibitors for treatment of cancer” (Eur J Med Chem, 2019)",
  "key": {"[1]": {"biological_target": "CDK7/Cyclin H/MNAT1 (Homo sapiens) (UniProt P51946+P50613+P51948)", "test": "Inhibition of recombinant full length human CDK7/cyclin H/MAT1 assessed as residual activity at 10 uM using peptide substrate measured after 40 mins in presence of [gamma33P]ATP by scintillation counting method", "assay_type": "protein-complex assay"}, "[2]": {"biological_target": "Tribbles homolog 2 (Homo sapiens) (UniProt Q92519)", "sequence (Q92519 whole entry)": "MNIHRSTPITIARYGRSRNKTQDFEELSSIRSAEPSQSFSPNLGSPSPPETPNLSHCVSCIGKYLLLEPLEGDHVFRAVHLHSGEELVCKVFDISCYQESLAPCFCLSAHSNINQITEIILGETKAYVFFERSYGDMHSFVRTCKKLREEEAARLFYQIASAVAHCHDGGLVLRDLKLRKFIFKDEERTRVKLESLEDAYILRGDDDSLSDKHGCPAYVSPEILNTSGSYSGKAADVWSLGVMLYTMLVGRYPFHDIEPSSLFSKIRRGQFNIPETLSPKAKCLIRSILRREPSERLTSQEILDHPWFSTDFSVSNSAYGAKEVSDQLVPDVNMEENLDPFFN", "test": "Inhibition of recombinant full-length human TRB2 assessed as residual activity at 10 uM using RRRFRPASPLRGPPK as substrate measured after 120 mins in presence of [gamma33P]ATP by scintillation counting method"}, "Homo sapiens [3]": {"species_on_record": "Homo sapiens", "test": "Inhibition of recombinant human PRAK R291E mutant assessed as residual activity at 10 uM using KKLRRTLSVA as substrate measured after 40 mins in presence of [gamma33P]ATP by scintillation counting method"}, "[4]": {"biological_target": "Hepatocyte growth factor receptor (Homo sapiens) (UniProt P08581)", "test": "Inhibition of recombinant human MET A1209G/V1290L mutant (974 to end residues) assessed as residual activity at 10 uM using KKKGQEEEYVFIE as substrate measured after 40 mins in presence of [gamma33P]ATP by scintillation counting method"}, "Mus musculus [5]": {"species_on_record": "Mus musculus", "test": "Inhibition of recombinant full-length mouse PI3K p110alpha/p85alpha H1047R mutant assessed as residual activity at 10 uM using phosphatidylinositol-4, 5-bisphosphate as substrate measured after 40 mins by HTRF assay"}, "[6]": {"biological_target": "Bone morphogenetic protein receptor type-1B (Homo sapiens) (UniProt O00238)", "sequence (O00238 whole entry)": "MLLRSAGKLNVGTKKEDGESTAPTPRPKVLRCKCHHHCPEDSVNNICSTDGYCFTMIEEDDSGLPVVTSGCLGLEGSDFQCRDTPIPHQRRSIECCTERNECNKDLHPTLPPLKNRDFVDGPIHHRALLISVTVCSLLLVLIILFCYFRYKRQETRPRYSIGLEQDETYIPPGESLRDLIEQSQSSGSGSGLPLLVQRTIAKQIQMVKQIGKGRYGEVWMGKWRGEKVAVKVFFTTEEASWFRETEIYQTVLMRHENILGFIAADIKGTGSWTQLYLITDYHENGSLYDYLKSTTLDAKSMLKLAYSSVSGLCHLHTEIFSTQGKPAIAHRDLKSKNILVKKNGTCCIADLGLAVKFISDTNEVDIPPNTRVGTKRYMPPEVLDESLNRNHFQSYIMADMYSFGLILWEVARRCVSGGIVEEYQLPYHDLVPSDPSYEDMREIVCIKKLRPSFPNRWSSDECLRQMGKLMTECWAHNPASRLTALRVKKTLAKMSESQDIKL", "test": "Inhibition of recombinant human ALK6 (148 to end residues) assessed as residual activity at 10 uM using casein as substrate measured after 40 mins in presence of [gamma33P]ATP by scintillation counting method"}, "[7]": {"system": "Homeodomain-interacting protein kinase 2 (Homo sapiens), Q9H2X6 [UNDEFINED MUTATION]", "test": "Inhibition of recombinant human HIPK2 I471N mutant (165 to 564 residues) assessed as residual activity at 10 uM using myelin basic protein as substrate measured after 40 mins in presence of [gamma33P]ATP by scintillation counting method"}, "[8]": {"biological_target": "Mitogen-activated protein kinase 1 (Homo sapiens) (UniProt P28482)", "sequence (P28482 whole entry)": "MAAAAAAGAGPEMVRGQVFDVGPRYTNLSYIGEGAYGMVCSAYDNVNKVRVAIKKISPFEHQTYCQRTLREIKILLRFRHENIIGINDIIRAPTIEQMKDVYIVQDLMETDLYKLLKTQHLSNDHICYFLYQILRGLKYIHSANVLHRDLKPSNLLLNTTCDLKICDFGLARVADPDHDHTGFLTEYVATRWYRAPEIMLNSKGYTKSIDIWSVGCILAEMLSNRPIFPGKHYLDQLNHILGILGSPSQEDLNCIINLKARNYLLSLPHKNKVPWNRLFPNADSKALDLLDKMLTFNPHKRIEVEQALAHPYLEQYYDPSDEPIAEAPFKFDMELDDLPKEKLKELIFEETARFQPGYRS", "test": "Inhibition of human MAPK2 assessed as residual activity at 10 uM"}, "[9]": {"biological_target": "Protein kinase C beta type (Homo sapiens) (UniProt P05771)", "sequence (P05771 2-671 limits assumed)": "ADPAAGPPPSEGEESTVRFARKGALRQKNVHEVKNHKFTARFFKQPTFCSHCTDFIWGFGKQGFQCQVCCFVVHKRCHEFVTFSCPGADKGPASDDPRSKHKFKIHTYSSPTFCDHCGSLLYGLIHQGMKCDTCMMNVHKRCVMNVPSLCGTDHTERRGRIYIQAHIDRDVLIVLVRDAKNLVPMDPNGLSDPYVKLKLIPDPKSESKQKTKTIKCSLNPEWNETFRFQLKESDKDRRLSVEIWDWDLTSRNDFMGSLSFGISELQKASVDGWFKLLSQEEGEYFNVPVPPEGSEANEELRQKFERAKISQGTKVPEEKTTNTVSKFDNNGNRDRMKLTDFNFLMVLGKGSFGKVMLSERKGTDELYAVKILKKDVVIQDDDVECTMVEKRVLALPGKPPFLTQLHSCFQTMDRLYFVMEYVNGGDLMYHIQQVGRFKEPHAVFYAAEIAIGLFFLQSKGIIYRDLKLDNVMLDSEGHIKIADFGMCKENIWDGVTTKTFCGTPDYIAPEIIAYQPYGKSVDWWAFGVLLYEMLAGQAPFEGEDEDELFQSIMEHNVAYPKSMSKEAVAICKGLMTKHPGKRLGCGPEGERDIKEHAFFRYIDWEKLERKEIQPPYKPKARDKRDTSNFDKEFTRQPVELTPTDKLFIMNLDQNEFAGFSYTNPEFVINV", "test": "Inhibition of recombinant human PKCbeta2 (2 to end residues) assessed as residual activity at 10 uM using histone H1 as substrate measured after 40 mins in presence of [gamma33P]ATP by scintillation counting method"}, "[10]": {"biological_target": "Ephrin type-A receptor 5 (Homo sapiens) (UniProt P54756)", "sequence (P54756 whole entry, the tested form may be a part)": "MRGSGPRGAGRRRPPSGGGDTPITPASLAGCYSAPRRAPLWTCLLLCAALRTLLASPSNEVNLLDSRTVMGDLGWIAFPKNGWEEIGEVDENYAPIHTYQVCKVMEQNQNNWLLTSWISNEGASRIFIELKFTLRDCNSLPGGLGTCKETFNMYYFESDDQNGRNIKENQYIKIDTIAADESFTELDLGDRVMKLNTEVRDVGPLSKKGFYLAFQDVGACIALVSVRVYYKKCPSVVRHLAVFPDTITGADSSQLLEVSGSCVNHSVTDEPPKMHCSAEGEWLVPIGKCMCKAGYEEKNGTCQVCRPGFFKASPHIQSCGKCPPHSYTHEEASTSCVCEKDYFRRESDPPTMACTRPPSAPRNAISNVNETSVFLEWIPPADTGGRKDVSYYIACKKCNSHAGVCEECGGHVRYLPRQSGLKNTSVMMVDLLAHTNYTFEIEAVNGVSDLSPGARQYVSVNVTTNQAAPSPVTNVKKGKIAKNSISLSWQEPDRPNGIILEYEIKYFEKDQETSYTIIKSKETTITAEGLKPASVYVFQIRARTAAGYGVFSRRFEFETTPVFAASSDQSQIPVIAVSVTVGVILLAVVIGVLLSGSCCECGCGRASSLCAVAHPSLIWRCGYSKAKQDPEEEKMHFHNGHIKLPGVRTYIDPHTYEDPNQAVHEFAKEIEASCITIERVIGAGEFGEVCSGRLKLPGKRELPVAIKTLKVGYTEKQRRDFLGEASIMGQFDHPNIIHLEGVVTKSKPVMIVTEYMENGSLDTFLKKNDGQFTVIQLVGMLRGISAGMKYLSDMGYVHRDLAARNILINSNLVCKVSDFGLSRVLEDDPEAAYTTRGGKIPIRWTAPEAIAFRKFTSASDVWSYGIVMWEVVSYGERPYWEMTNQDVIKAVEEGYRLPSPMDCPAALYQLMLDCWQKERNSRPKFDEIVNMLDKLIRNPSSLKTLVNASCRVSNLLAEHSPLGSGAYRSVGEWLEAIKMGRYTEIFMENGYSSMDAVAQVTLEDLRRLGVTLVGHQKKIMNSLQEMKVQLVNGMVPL", "test": "Inhibition of recombinant human EphA5 (655 to 956 residues) assessed as residual activity at 10 uM using poly(Glu, Tyr) 4:1 as substrate measured after 40 mins in presence of [gamma33P]ATP by scintillation counting method"}, "[11]": {"biological_target": "Serine/threonine-protein kinase haspin (Homo sapiens) (UniProt Q8TF76)", "test": "Inhibition of recombinant human haspin (471 to end residues) assessed as residual activity at 10 uM using RARTLSFAEPG as substrate measured after 40 mins in presence of [gamma33P]ATP by scintillation counting method"}, "[12]": {"biological_target": "5'-AMP-activated protein kinase catalytic subunit alpha-2 (Homo sapiens) (UniProt P54646)", "test": "Inhibition of recombinant full-length human AMPKalpha2 assessed as residual activity at 10 uM using AMARAASAAALARRR as substrate measured after 40 mins in presence of [gamma33P]ATP by scintillation counting method"}, "[13]": {"biological_target": "Vascular endothelial growth factor receptor 1 (Homo sapiens) (UniProt P17948)", "test": "Inhibition of recombinant human Flt1 (783 to end residues) assessed as residual activity at 10 uM using KKKSPGEYVNIEFG as substrate measured after 40 mins in presence of [gamma33P]ATP by scintillation counting method"}, "[14]": {"system": "Serine/threonine-protein kinase Chk2 (Homo sapiens), O96017 [I157T]", "test": "Inhibition of recombinant human CHK2 I157T mutant (5 to end residues) assessed as residual activity at 10 uM using KKKVSRSGLYRSPSMPENLNRPR as substrate measured after 40 mins in presence of [gamma33P]ATP by scintillation counting method"}, "[15]": {"biological_target": "cGMP-dependent protein kinase 2 (Homo sapiens) (UniProt Q13237)", "test": "Inhibition of recombinant full-length human PRKG2 assessed as residual activity at 10 uM using KKLRRTLSFAEPG as substrate measured after 40 mins in presence of [gamma33P]ATP by scintillation counting method"}, "[16]": {"biological_target": "Transcription initiation factor TFIID subunit 1-like (Homo sapiens) (UniProt Q8IZX4)", "test": "Inhibition of human TAF1L (1428 to end residues) using RRRFRPASPLRGPPK as substrate measured after 120 mins in presence of [gamma33P]ATP by scintillation counting method", "parameters": "scale not given: the % may be the effect or the level left"}, "Homo sapiens [17]": {"species_on_record": "Homo sapiens", "test": "Inhibition of recombinant human Flt4 V1128L/H1146R mutant (800 to end residues) assessed as residual activity at 10 uM using GGEEEEYFELVKKKK as substrate measured after 40 mins in presence of [gamma33P]ATP by scintillation counting method"}, "CT26": {"system": "CT26", "test": "Antiproliferative activity against mouse CT26 cells assessed as reduction in cell viability after 72 hrs by MTT assay", "assay_type": "functional, cell-based", "conditions": "CT26, 72 h"}, "[18]": {"biological_target": "Mitogen-activated protein kinase 13 (Homo sapiens) (UniProt O15264)", "sequence (O15264 whole entry)": "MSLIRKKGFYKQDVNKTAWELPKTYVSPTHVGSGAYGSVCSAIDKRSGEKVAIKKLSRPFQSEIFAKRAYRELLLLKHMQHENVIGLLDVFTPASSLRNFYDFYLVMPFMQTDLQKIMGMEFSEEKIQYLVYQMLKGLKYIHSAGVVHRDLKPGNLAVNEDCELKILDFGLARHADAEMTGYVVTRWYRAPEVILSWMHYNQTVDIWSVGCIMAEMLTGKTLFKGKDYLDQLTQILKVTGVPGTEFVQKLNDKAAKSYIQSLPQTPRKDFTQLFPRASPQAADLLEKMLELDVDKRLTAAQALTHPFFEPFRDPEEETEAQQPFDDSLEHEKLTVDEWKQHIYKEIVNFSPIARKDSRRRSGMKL", "test": "Inhibition of recombinant full-length human SAPK4 assessed as residual activity at 10 uM using myelin basic protein as substrate measured after 40 mins in presence of [gamma33P]ATP by scintillation counting method"}, "Homo sapiens [19]": {"species_on_record": "Homo sapiens", "test": "Inhibition of recombinant full-length human ATRIP/ATR M211T mutant assessed as residual activity at 10 uM using GST-cMyc-p53 as substrate measured after 40 mins by fluorescence assay"}, "[20]": {"system": "Calcium/calmodulin-dependent protein kinase kinase 2 (Homo sapiens), Q96RR4 [T85S]", "sequence (Q96RR4 whole entry T85S)": "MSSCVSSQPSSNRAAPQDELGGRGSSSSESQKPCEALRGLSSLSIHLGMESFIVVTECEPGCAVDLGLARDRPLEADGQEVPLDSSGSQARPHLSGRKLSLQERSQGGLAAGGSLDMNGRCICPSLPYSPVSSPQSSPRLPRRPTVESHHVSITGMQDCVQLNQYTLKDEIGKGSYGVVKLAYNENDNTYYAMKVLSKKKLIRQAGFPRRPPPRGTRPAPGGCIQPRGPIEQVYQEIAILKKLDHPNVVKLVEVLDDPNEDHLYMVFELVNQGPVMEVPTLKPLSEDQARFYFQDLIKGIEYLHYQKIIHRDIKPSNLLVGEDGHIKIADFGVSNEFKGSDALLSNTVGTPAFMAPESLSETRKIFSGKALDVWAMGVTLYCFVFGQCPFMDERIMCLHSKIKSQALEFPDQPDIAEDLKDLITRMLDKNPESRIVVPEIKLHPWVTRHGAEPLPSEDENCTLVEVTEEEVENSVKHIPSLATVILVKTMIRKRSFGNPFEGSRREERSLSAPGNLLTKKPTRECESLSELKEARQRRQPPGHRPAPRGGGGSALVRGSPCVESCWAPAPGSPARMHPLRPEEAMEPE", "test": "Inhibition of recombinant full-length human CAMKk2 T85S mutant assessed as residual activity at 10 uM using calmodulin as substrate measured after 40 mins in presence of [gamma33P]ATP by scintillation counting method"}, "[21]": {"biological_target": "Dual specificity tyrosine-phosphorylation-regulated kinase 3 (Homo sapiens) (UniProt O43781)", "sequence (O43781 whole entry)": "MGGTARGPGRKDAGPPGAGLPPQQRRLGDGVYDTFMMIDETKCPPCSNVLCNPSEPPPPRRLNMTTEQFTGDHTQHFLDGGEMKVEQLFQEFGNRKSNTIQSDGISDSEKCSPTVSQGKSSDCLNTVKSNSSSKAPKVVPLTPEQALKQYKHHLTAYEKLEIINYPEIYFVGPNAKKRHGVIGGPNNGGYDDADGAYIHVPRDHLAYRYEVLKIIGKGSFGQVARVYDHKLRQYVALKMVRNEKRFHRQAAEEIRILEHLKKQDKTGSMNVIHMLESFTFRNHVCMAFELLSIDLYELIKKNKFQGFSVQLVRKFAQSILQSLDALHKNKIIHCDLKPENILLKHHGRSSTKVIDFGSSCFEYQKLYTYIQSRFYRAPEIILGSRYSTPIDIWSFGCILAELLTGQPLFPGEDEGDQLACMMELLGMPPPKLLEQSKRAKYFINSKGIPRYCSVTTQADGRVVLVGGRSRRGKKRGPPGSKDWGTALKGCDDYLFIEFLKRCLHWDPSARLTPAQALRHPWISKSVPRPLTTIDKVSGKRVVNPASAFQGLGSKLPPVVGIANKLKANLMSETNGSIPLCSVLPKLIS", "test": "Inhibition of recombinant full-length human DYRK3 assessed as residual activity at 10 uM using RRRFRPASPLRGPPK as substrate measured after 40 mins in presence of [gamma33P]ATP by scintillation counting method"}, "[22]": {"biological_target": "Serine/threonine-protein kinase 32C (Homo sapiens) (UniProt Q86UX6)", "sequence (Q86UX6 whole entry)": "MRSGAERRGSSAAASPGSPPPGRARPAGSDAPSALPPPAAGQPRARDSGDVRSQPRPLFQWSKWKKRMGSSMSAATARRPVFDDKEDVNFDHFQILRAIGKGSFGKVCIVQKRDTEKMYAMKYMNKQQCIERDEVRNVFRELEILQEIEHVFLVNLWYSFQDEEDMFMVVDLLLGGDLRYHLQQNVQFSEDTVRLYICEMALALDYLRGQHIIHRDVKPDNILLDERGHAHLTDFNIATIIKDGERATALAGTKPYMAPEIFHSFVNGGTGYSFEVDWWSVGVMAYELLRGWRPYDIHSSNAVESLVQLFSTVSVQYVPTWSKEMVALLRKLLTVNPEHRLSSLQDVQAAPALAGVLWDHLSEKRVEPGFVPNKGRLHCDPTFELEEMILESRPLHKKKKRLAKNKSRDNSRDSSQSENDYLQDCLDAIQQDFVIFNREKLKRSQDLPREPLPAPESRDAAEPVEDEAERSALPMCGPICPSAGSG", "test": "Inhibition of recombinant full-length human STK32C assessed as residual activity at 10 uM using casein as substrate measured after 120 mins in presence of [gamma33P]ATP by scintillation counting method"}, "Mus musculus [23]": {"species_on_record": "Mus musculus", "test": "Inhibition of recombinant full-length mouse PI3K p110beta/p85beta R123L mutant assessed as residual activity at 10 uM using phosphatidylinositol-4, 5-bisphosphate as substrate measured after 40 mins by HTRF assay"}},
  "data": [
    {"smiles": "Cc1cc(C)c(CNc2nc(Cl)nc3c2ncn3C2CCCC2)c(=O)[nH]1", "values": [
      {"measurement": "Activity", "setting": "[1]", "result": 101, "unit": "%"},
      {"measurement": "Activity", "setting": "[2]", "result": 90.5, "unit": "%"},
      {"measurement": "Activity", "setting": "Homo sapiens [3]", "result": 125, "unit": "%"},
      {"measurement": "Activity", "setting": "[4]", "result": 80, "unit": "%"},
      {"measurement": "Activity", "setting": "Mus musculus [5]", "result": 99, "unit": "%"},
      {"measurement": "Activity", "setting": "[6]", "result": 103, "unit": "%"},
      {"measurement": "Activity", "setting": "[7]", "result": 104, "unit": "%"},
      {"measurement": "Activity", "setting": "[8]", "result": 104, "unit": "%"},
      {"measurement": "Activity", "setting": "[9]", "result": 106, "unit": "%"},
      {"measurement": "Activity", "setting": "[10]", "result": 99, "unit": "%"},
      {"measurement": "Activity", "setting": "[11]", "result": 89, "unit": "%"},
      {"measurement": "Activity", "setting": "[12]", "result": 117, "unit": "%"},
      {"measurement": "Activity", "setting": "[13]", "result": 97.5, "unit": "%"},
      {"measurement": "Activity", "setting": "[14]", "result": 103, "unit": "%"},
      {"measurement": "Activity", "setting": "[15]", "result": 98, "unit": "%"},
      {"measurement": "Activity", "setting": "[16]", "result": 108, "unit": "%"},
      {"measurement": "Activity", "setting": "Homo sapiens [17]", "result": 104, "unit": "%"},
      {"measurement": "IC50", "setting": "CT26", "result": 0.0455, "unit": "µM"},
      {"measurement": "Activity", "setting": "[18]", "result": 96.5, "unit": "%"},
      {"measurement": "Activity", "setting": "Homo sapiens [19]", "result": 106, "unit": "%"},
      {"measurement": "Activity", "setting": "[20]", "result": 99.5, "unit": "%"},
      {"measurement": "Activity", "setting": "[21]", "result": 122, "unit": "%"},
      {"measurement": "Activity", "setting": "[22]", "result": 97, "unit": "%"},
      {"measurement": "Activity", "setting": "Mus musculus [23]", "result": 101, "unit": "%"}
    ]}
  ]
}
